Each structure is given as a SMILES string. Some results are limits rather than exact numbers.

The source of these data is patent US6159953A, “Anti-malarial composition and method of use” (Catholic University of America, priority 1992, dated 2000).

One assay deals with P. yoelii. Put plainly: Anti-malarial activity in P. yoelii-infected mice. The format is in vivo, P. yoelii in Swiss white mice. As to the method:
FIG. 4 illustrates the effect of 5-fluoro-orotate treatment on blood parasitemia. Mice infected with P. yoelii on day 0 in experiments 1 and 2 were treated with (A) 0.2 mg/kg 5-fluoro-orotate, (B) 1 mg/kg, or (C) 5 mg/kg every 4 hours for three days. Control mice (.largecircle., .circle-solid., respectively), received no drug. Open symbols represent treatment without uridine (experiment 1: .smallcircle., .quadrature., .diamond., Δ), and filled symbols represent animals also treated with uridine (experiment 2: .circle-solid., .box-solid., .diamond-solid., .tangle-solidup.). Animals were treated with 5-fluoro-orotate on days 3 to 6. Animals were also treated with uridine in experiment 2 on days 3 to 9.
FIG. 5 illustrates the survival rate of mice infected with P. yoelii and treated with 5-fluoro-orotate, alone or in combination with uridine. Mice were treated with (A) 0.2 mg/kg 5-fluoro-orotate, (B) 1 mg/kg, or (C) 5 mg/kg. Control mice received no 5-fluoro-orotate (.largecircle., .circle-solid., respectively). Open symbols represent treatment without uridine (experiment 1: .largecircle., .quadrature., .diamond., Δ), and closed symbols represent animals also receiving uridine (experiment 2: .circle-solid., .box-solid., .diamond-solid., .tangle-solidup.).
A second in vivo test system can be used to determine if repeated administration of the pyrimidine analogue would have safe anti-malarial activity. In this test system, groups of animals are infected with malaria parasites. At a time when blood parasitemia is reached, the animals are injected with saline alone (control) or with various concentrations of one or more pyrimidine analogues alone or together with one or more rescuing pyrimidine bases or nucleosides at a single concentration, at intervals, over a period of several days. In order to determine the prophylactic effectiveness of the rescuing pyrimidine base or nucleoside, the animals are pretreated with such a base or nucleoside prior to the administration of the pyrimidine analogue. Anti-malarial activity of the treatments is estimated by determining blood parasitemia on the animals at appropriate times. The safety of the treatments is estimated by monitoring animals for weight loss and diarrhea, as these are early symptoms of pyrimidine analogue toxicity [Houghton, J. A., et al., Cancer Res., 39:2406-13 (1979)].
Swiss white mice (25-30 g) were divided into groups of five. On day 0, each mouse was infected by intraperitoneal injection of 10^5 erythrocytic forms of P. yoelii. Starting on day 3, when the blood parasitemia had reached between 5 and 12%, the mice were injected intraperitoneally every 4 hours for three consecutive days with 200 μl of various formulations. […]

Assay [1] concerns Plasmodium falciparum, Sierra Leone clone. Put plainly: Increase in parasitemia by light microscopy (Giemsa-stained smears), Sierra Leone clone. Conditions: Table 2, light microscopy. Type of assay: cell-based, P. falciparum. On the procedure: Additionally, parasite-infected and treated erythrocytes can be smeared on microscope slides, stained with, e.g., Giemsa stain, and the ratio of infected to non-infected erythrocytes determined.
The chloroquine-sensitive Sierra Leone clone of P. falciparum was cultured in erythrocytes as in Example 1 above. In one method of determining the toxicity of 5-fluoro-orotate, [G-^3 H]-hypoxanthine uptake was used as an indicator of parasite proliferation, according to the procedure of Example 1 above. In a second method, the increase in parasitemia was determined directly by smearing infected erythrocytes on microscope slides, staining with Giemsa stain, and determining the ratio of infected to non-infected erythrocytes. In a third method, parasite-infected erythrocytes were incubated with [U-^14 C]-isoleucine (0.5 μCi; 0.33 Ci/mmol), and the amount of radioactivity incorporated into precipitable proteins determined.

The IC50 is the point on the concentration scale where inhibition reaches its midpoint. Read a high IC50 as weaker potency. Regarding `O=C(O)c1[nH]c(=O)[nH]c(=O)c1F` [5-fluoro-orotate], in the assay on P. yoelii (0.2 mg/kg, treatment stopped day 6), the “time to return of parasitemia after end of treatment” value is no more than 24 h. Further, the “transient parasitemia after rechallenge” value in the assay on P. yoelii (10^6 P. yoelii parasites, days 2 to 4, 0.2 mg/kg group) is given as “less than 0.05%”. Moreover, the “time to resolution of second surge of parasitemia” value in the assay on P. yoelii (low doses (0.2 and 1 mg/kg), no additional drug) is recorded as no more than 14 days. For the same compound, half-maximal inhibition in assay [1] (IC50) was put at 2.5 nM.
